“And” between values parts separate entries of the source, which are not always exact repeats. Equal values may be shown once. Read-outs that look alike come from different tables or passages of the source.
Tests used:
E. pyramidum venom [1] = experiment: coincubation model of envenoming; set-up: species or system male CD-1 mice; settings: mouse, in vivo, iv
[2] = test system: E. ocellatus venom (Nigeria); experiment: coincubation model of envenoming; set-up: species or system male CD1 mice; settings: mouse, in vivo, iv
[3] = test system: cleavage of recombinant human prothrombin by saw-scaled viper venom; assay type: biochemical, Echis; settings: lower dose (150 µM)
[4] = test system: E. carinatus (India) venom; experiment: coincubation model of envenoming; set-up: species or system male CD-1 mice; settings: mouse, in vivo, iv
[5] = test system: procoagulant activity of six Echis venoms; assay type: biochemical; settings: for IC50: read-out: IC50, neutralization of venom-induced plasma clotting
[6] = test system: venom SVMPs from six saw-scaled vipers; assay type: biochemical; settings: read-out: IC50, neutralization of venom SVMP activity
[7] = test system: venom-induced plasma clotting (Echis venoms, calcium-independent); assay type: biochemical; settings: for IC50: read-out: IC50, venom-induced plasma clotting in the absence of calcium
E. ocellatus venom [8] = test system: E. ocellatus venom; set-up: species or system male CD-1 mice; settings: mouse, in vivo, ip
[9] = test system: serine protease activity of fractionated E. ocellatus venom; assay type: biochemical
[10] = rabbits and dogs, intravenous or oral administration for 10-26 weeks; cited from earlier work
E. pyramidum venom [11] = test system: E. pyramidum venom; set-up: species or system male CD-1 mice; settings: mouse, in vivo, ip
[12] = test system: PLA2 activity of fractionated E. ocellatus venom; assay type: biochemical
E. ocellatus venom [13] = experiment: neutralization of local hemorrhage; set-up: species or system male CD-1 mice; settings: mouse, in vivo
[14] = rats and rabbits, first 6 h, after oral dosing; cited from earlier work
[15] = humans, cited from earlier work
[16] = test system: E. ocellatus, E. pyramidum and E. carinatus venoms; set-up: species or system male CD-1 mice; settings: mouse, in vivo, ip
E. ocellatus venom [17] = test system: E. ocellatus venom; set-up: species or system mice; settings: mouse, in vivo, iv
[18] = test system: E. carinatus (India) venom; set-up: species or system male CD-1 mice; settings: mouse, in vivo, ip
E. ocellatus venom [19] = experiment: challenge and treat model using oral DMPS, E. ocellatus; set-up: species or system male CD-1 mice; settings: mouse, in vivo
[20] = drug-only / antivenom-only control groups; settings: 600 µg DMPS orally, 24 h
[21] = test system: venoms of E. pyramidum and E. carinatus; set-up: species or system mice; settings: mouse, in vivo, iv
[22] = test system: Indian E. carinatus venom; assay type: biochemical; settings: read-out: IC50, plasma assay

Structure (SMILES)	protection against lethality (E. pyramidum venom [1])	plasma thrombin-antithrombin (TAT) concentrations [2]	survival [2]	protection of prothrombin against cleavage, comparison [3]	protection against lethality [4]	IC50 [5]	IC50 [6]	IC50 [7]	survival to the end of the experiment (24 h) (E. ocellatus venom [8])	time of death (E. ocellatus venom [8])	further results
OCC(S)CS (stereo not shown) [dimercaprol]	two deaths	40 to 50 ng/mL	survived until the end of the experiment (6 h)	outperformed DMPS and DMSA	complete protection	0.14 to 1.36 µM	40 to 180 nM	0.49 to 14 µM	two experimental animals also survived	111 min and 125 min and 150 min	–
O=S(=O)(O)CC(S)CS (stereo not shown) [DMPS, 2,3-dimercapto-1-propanesulfonic acid]	complete protection	170 to 252 ng/mL	survived until the end of the experiment (6 h)	–	two deaths	1.18 to 27.7 µM	1640 to 3400 nM	2.18 to 7.55 µM	two of the five experimental animals survived	756 to 1440 min and 756 min	inhibition of serine protease activity [9]: unable to inhibit; changes in the concentrations of iron or calcium [10]: no significant changes in the concentrations of iron or calcium; time of death [4]: 89 min and 110 min; survival for the duration of the experiment (24 h) (E. pyramidum venom [11]): two survived for the duration of the experiment (24 h); inhibition of PLA2 activity [12]: unable to inhibit; hemorrhagic lesion size (average) (E. ocellatus venom [13]): 1.43 mm^2; fraction excreted in the urine / eliminated within 6 h [14]: 85-89% and > 85%; time to peak plasma concentrations ([15]; after ingestion): 3 to 4 h; time at which the drug can be detected in the plasma ([15]; after oral administration): 30 to 45 min; clinical half-life [15]: ~ 20 h; TAT concentrations, animals not protected by DMPS [16]: > 400 ng/mL; TAT concentrations, animals that survived for the duration of the experiment (average) [16]: ~ 200 ng/ml; RBC morphology (E. ocellatus venom [17]): fully rescued normal RBC morphology; effect on lethality compared with the venom-only control [18]: slight delay in lethality; echinocytes in blood films (E. ocellatus venom [19]): markedly reduced the number of echinocytes; prolonged animal survival compared to the venom-only controls (E. ocellatus venom [19]): ~ 10 h; survival at the end of the experiment (24 h) (E. ocellatus venom [19]): 2 of 5; signs of toxicity (survival, behavioral and post-mortem observations) [20]: did not display any signs of toxicity in mice; prolonged animal survival compared to the venom-only controls (E. ocellatus venom [8]): ~ 17 h; RBC morphology [21]: some protection
O=C(O)[C@@H](S)[C@@H](S)C(=O)O [DMSA, dimercaptosuccinic acid]	–	300 to 666 ng/mL	three of the five experimental animals survived	–	–	18.8 to 147 µM	19300 to 35100 nM	–	–	–	–
O=C(O)CN(CCN(CC(=O)O)CC(=O)O)CC(=O)O [EDTA]	–	–	–	outperformed DMPS and DMSA	–	–	2250 to 4430 nM	4.89 to 253 µM	–	–	inhibition of venom activity in the plasma assay [5]: did not extensively inhibit venom activity; IC50 [22]: 2180 nM; inhibition of venom-induced plasma clotting in the absence of calcium ([7]; no calcium): effective at inhibiting venom-induced plasma clotting

Reference: PMC7116364 (Science translational medicine, 2020)
